Source: US9567318B2, “Substituted pyrimidine compounds and uses thereof” (Memorial Sloan-Kettering Cancer Center, priority 2009, dated 2017)

How the values were obtained:
[1] = tested on: Kasumi-1 acute myeloid leukemia cells; assay: Growth Inhibition Assay (Alamar blue), Kasumi-1; type: cell-based, human; settings: Homo sapiens, Kasumi 1, 72 h, Kasumi-1 cells
Summary of the method: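 Adherent SKBr3 cells seeded at 8,000/well and suspension Kasumi-1 cells at 20,000/well, rested 24 h at 37 °C, then treated in triplicate for 72 h. Viability read by Alamar blue (440 µM) fluorescence (ex 530/em 580 nm) after 6 h; growth inhibition calculated versus untreated controls, corrected for the time-zero cell population.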

Human Hsc70 = molecular target: T1, Human Hsc70 (Homo sapiens, UniProt P11142); assay: Hsc70 ATPase activity; type: biochemical; settings: 100 μM, Hsc70 with co-chaperones, 30° C.
T1 construct: made in house
Description: FIG. 6. YK5 inhibits core biochemical functions of Hsp70s and disrupts the Hsp90/Hsp70 interaction. a) Refolding of denatured luciferase by Hsc70 and DJA2 at 30° C. was measured for the indicated times in the presence of YK5 (100 μM) or vehicle (left), or at 60 min in the presence of indicated concentrations of YK5 (right). b) Hsc70 ATPase rates were measured for reactions at 30° C. with the indicated combinations of Hsc70 and co-chaperones in the presence of vehicle (DMSO) or YK5 (100 μM). ADP production was monitored by thin layer chromatography separation of radiolabeled ADP from ATP and phosphorimaging analysis (lower). […] Proteins isolated with anti-Hsp90 and Hsp70s antibodies (IP: Hsp90 or Hsp70), or present in the cell extract (Lysate) were analyzed by WB. […] Proteins were applied to a native gel and analyzed by immunoblotting. […]
Hsc70 ATPase Activity and Luciferase Refolding. Human Hsc70, DJA1/DNAJA1, DJA2/DNAJA2 and Hsp110/Hsp105/HSPH1 were purified and analyzed. […] Samples at time points were terminated with 37.5 mM EDTA and analyzed by thin layer chromatography on polyethylene-imine cellulose (Mallinckrodt Baker) developed in 0.5 M LiCl and 0.5 M formic acid. The ADP produced was determined by image phosphor quantitation and the linear enzymatic rates (Vmax) were calculated by regression analysis. […]

T1 sequence (P11142 whole entry): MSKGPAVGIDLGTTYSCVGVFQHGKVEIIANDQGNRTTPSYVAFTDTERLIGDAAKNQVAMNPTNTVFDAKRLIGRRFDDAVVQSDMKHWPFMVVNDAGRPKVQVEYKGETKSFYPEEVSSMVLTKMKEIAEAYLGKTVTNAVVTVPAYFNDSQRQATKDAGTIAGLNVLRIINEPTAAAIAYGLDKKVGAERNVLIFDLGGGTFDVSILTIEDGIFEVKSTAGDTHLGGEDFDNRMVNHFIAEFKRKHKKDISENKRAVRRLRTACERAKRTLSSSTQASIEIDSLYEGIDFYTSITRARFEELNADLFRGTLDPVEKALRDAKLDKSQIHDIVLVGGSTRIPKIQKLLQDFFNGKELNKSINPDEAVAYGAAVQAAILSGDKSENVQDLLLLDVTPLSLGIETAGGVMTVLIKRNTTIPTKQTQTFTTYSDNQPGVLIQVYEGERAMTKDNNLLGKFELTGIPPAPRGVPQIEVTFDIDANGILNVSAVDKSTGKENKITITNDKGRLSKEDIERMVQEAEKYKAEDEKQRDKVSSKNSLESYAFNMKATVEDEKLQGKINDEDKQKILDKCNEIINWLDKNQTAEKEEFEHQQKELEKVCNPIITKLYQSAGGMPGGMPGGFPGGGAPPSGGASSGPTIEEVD

C=CC(=O)Nc1cc(N)nc(Sc2c(OC)nc(N3CCN(C)CC3)nc2OC)n1 [YK5, N-(6-amino-2-(4,6-dimethoxy-2-(4-methylpiperazin-1-yl)pyrimidin-5-ylthio)pyrimidin-4-yl)acrylamide]
IC50 [1]: 0.4 to 0.6 µM | stimulated ATPase rate of Hsc70 (Human Hsc70): partially inhibited the stimulated ATPase rate of Hsc70
